Assay results: publication PMC9199882 (Clinical and Translational Science, 2022)
Where two headings read alike, the source gives them in different places.

Columns and labels:
[1] = Midazolam and 1-hydroxymidazolam plasma PK, DDI study stage 1
[2] = cited from earlier work
[3] = patients with CML, 40 mg bid, ref Novartis, unpublished data, cited from earlier work
[4] = patients with CML, doses of up to 200 mg b.i.d.; cited from earlier work
CYP3A = assay: Effect of asciminib on CYP3A substrate midazolam; settings: for AUClast G mean ratio (90% CI) / Cmax G mean ratio (90% CI): midazolam + asciminib / midazolam
CYP2C9 = assay: Effect of asciminib on CYP2C9 substrate warfarin
CYP2C8 = assay: Effect of asciminib on CYP2C8 substrate repaglinide; settings: for AUClast G mean ratio (90% CI) / Cmax G mean ratio (90% CI): repaglinide + asciminib / repaglinide
[5] = midazolam 7.5 mg oral; cited from earlier work
blood glucose = assay: Blood glucose concentration-time profile of repaglinide; assay type: in vivo, human; settings: blood glucose concentration–time profiles, 6 h post-dose, days 1 and 5
[6] = Repaglinide plasma PK, DDI study stage 2
[7] = for Cmax, adjusted G mean: linear mixed model
[8] = warfarin 10 mg oral, cited from earlier work
prothrombin time = assay: Prothrombin pharmacodynamic analysis of warfarin; settings: warfarin + asciminib vs warfarin alone
[9] = ref Novartis, unpublished data, 9, 10
[10] = midazolam at asciminib steady-state vs midazolam alone
[11] = repaglinide in the presence of asciminib vs alone
[12] = warfarin 5 mg oral + asciminib 40 mg b.i.d. steady-state, day 11, plasma
[13] = warfarin 5 mg oral alone, day 1, plasma
[14] = warfarin + asciminib 40 mg b.i.d. steady-state
[15] = warfarin at asciminib steady-state vs warfarin alone

## OCc1ncc2n1-c1ccc(Cl)cc1C(c1ccccc1F)=NC2 [1-hydroxymidazolam, 1‐hydroxymidazolam]
[1]; midazolam alone
  metabolite‐to‐parent ratio of G mean AUCinf: 0.31
  metabolite‐to‐parent ratio of G mean AUClast: 0.31
[1]; midazolam with asciminib
  metabolite‐to‐parent ratio of G mean AUCinf: 0.29
  metabolite‐to‐parent ratio of G mean AUClast: 0.27

## O=C(Nc1ccc(OC(F)(F)Cl)cc1)c1cnc(N2CC[C@@H](O)C2)c(-c2ccn[nH]2)c1 [Asciminib, asciminib]
[2]
  half‐life (T 1/2): 7 to 15 h
  unchanged asciminib in urine: 2.5%
  unchanged asciminib share of drug‐related exposure in plasma: > 90%
[2]; disposition studies in humans
  mean recovery from feces: 80%
[2]; mainly UGT2B7, UGT2B17, UGT1A3/4, ref Novartis, unpublished data, 9, 10
  clearance pathway: direct glucuronidation by UGT: 27.9%
[2]; part of the CYP oxidation, ref Novartis, unpublished data, 9, 10
  clearance pathway: oxidation by CYP3A4: 36%
[2]; post‐dose
  median time to reach the maximum plasma concentration (Tmax): 2 to 3 h
[2]; [9]
  clearance pathway: biliary secretion by BCRP: 31.1%
  clearance pathway: oxidation by cytochrome P450 enzymes: 37.8%
[3]
  Cmax at steady‐state, unbound asciminib: 48 nM
[3]; read-out: Cmax at steady‐state, total asciminib
  Cmax: 1770 nM
[4]
  maximum tolerated dose: not reached
CYP3A; human, in vivo
  inhibitor classification, CYP3A: weak inhibitor
CYP2C9; asciminib 40 mg b.i.d.
  inhibitor classification, CYP2C9: weak inhibitor
CYP2C8; asciminib 40 mg b.i.d.
  effect on CYP2C8: no meaningful effect

## Cc1ncc2n1-c1ccc(Cl)cc1C(c1ccccc1F)=NC2 [Midazolam, midazolam]
[5]
  median Cmax: 63.1 ng/mL
  median T 1/2: 3.2 h
  median Tmax: 0.34 h
[1]; human, plasma, oral, AUCinf, adjusted G mean, midazolam alone, linear mixed model
  AUC(0-inf): 37.4 ng·h/mL
[1]; human, plasma, oral, AUClast, adjusted G mean, midazolam alone, linear mixed model
  AUC(0-t): 35.4 ng·h/mL
[1]; human, plasma, oral, Cmax, adjusted G mean, midazolam alone, linear mixed model
  Cmax: 15.9 ng/mL
[1]; human, plasma, po, 4 mg
  Tmax: 0.51 h
  Vd/F: 413 L
[1]; midazolam 4 mg oral + asciminib 40 mg b.i.d. steady-state, day 11
  CL/F, G mean (GCV%): 83.0 (38.8) L/h
[1]; midazolam 4 mg oral + asciminib 40 mg b.i.d. steady-state, day 11, plasma
  AUClast, G mean (GCV%): 44.9 (38.1) ng × h/ml
[1]; midazolam 4 mg oral alone, day 1
  CL/F, G mean (GCV%): 107 (31.2) L/h
CYP3A
  AUClast G mean ratio (90% CI): 1.27
  Cmax G mean ratio (90% CI): 1.11
CYP3A; listed as midazolam
  AUClast G mean ratio (90% CI): 1.27 (1.14, 1.41)
  Cmax G mean ratio (90% CI): 1.11 (0.96, 1.28)
CYP3A; [10]
  increase in AUCinf: 28%
  increase in AUClast: 27%
  increase in Cmax: 11%

## CCOc1cc(CC(=O)N[C@@H](CC(C)C)c2ccccc2N2CCCCC2)ccc1C(=O)O [Repaglinide, repaglinide]
Blood glucose
  glucose‐metabolizing activity alone or in combination with asciminib: no difference
[6]; human, plasma, oral, 0.5 mg
  Cmax: 6.71 ng/mL
[6]; human, plasma, po, 0.5 mg
  Cmax: 6.71 ng/mL
  Tmax: 0.75 h
  Vd/F: 162 L
[6]; repaglinide 0.5 mg oral + asciminib 40 mg b.i.d. steady-state, day 5
  CL/F, G mean (GCV%): 43.2 (38.2) L/h
[6]; repaglinide 0.5 mg oral + asciminib 40 mg b.i.d. steady-state, day 5, plasma
  T 1/2, G mean (GCV%): 2.09 (76.3) h
[6]; repaglinide 0.5 mg oral alone, day 1
  CL/F, G mean (GCV%): 46.3 (36.8) L/h
[6]; repaglinide 0.5 mg oral alone, day 1, plasma
  T 1/2, G mean (GCV%): 2.42 (46.2) h
CYP2C8
  AUClast G mean ratio (90% CI): 1.09
  Cmax G mean ratio (90% CI): 1.14
CYP2C8; listed as repaglinide
  AUClast G mean ratio (90% CI): 1.09 (1.03, 1.15)
  Cmax G mean ratio (90% CI): 1.14 (1.01, 1.28)
CYP2C8; [11]
  increase in AUCinf: 8%
  increase in AUClast: 9%
  increase in Cmax: 14%

## CC(=O)C[C@H](c1ccccc1)c1c(O)c2ccccc2oc1=O [R‐Warfarin, R‐warfarin]
[7]; [12]
  Cmax, G mean (GCV%): 213 (20.4) ng/ml
  Tmax, median (range): 2.95 (0.94–11.7) h
[7]; [13]
  Cmax, G mean (GCV%): 196 (19.6) ng/ml
  Tmax, median (range): 2.01 (0.99–12.0) h
[7]; warfarin 5 mg oral alone, day 1, plasma, listed as R‐warfarin
  Tmax, median (range): 2.0 h
[7]; [14]
  Cmax, adjusted G mean: 215 ng/mL
[7]; warfarin alone
  Cmax, adjusted G mean: 196 ng/mL
CYP2C9; [15]
  increase in AUCinf: 25%
  increase in AUClast: 24%
  increase in Cmax: 10%

## CC(=O)C[C@@H](c1ccccc1)c1c(O)c2ccccc2oc1=O [S‐Warfarin, S‐warfarin]
[7]; [12]
  Cmax, G mean (GCV%): 225 (17.2) ng/ml
  Tmax, median (range): 2.00 (0.94–3.99) h
[7]; [13]
  Cmax, G mean (GCV%): 209 (18.6) ng/ml
  Tmax, median (range): 2.00 (0.99–4.00) h
[7]; [14]
  Cmax, adjusted G mean: 227 ng/mL
[7]; warfarin alone
  Cmax, adjusted G mean: 209 ng/mL
CYP2C9; [15]
  increase in AUClast: 39%
  increase in Cmax: 9%

## CC(=O)CC(c1ccccc1)c1c(O)c2ccccc2oc1=O (stereo not drawn) [Warfarin, warfarin]
[8]; read-out: median Cmax
  Cmax: 1700 to 2000 nM
[8]; converted from μM
  median Cmax: 500 to 600 ng/mL
[8]
  median Tmax: 2 h
Prothrombin time
  anticoagulation activity on co‐administration with asciminib: unaffected
